We go through 15 compounds from patent US9745295B2, “Thiazole-substituted aminoheteroaryls as spleen tyrosine kinase inhibitors” (Merck Sharp & Dohme Corp., priority 2013, dated 2017).

For series [1] the following is noted: phase II clinical trial, allergic rhinitis; cited from earlier work.
Another series concerns PGD2. The following applies: dosed intranasally, phase I/II study, allergic rhinitis; cited from earlier work.
In series [2] the target is T1, recombinant human GST-SYK (Homo sapiens, UniProt P43405).
T1 construct: purchased Carna Biosciences 08-176
As to the kind of experiment: Homogeneous Time-Resolved Fluorescence (HTRF) assay for the recombinant human Syk enzyme. In kind it is biochemical. The following applies: recombinant human GST-SYK 5 pM, ATP 25 μM, read-out: rhSYK IC50. In a few lines:
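GST-tagged human Syk (5 pM) preincubated 10 min with inhibitor (0.1% DMSO) in pH 7.5 Tris buffer, then 45 min at room temperature with 250 nM biotinylated peptide, 5 mM Mg and 25 μM ATP. EDTA-quenched; Eu-anti-phosphotyrosine/SA-APC HTRF read after 30 min, giving IC50.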
For orientation: In TR-FRET formats the signal depends on donor and acceptor labels being close together.

On to `Oc1cccc(Nc2ncc(F)c(Nc3cccc(O)c3)n2)c1` [Example R112], for which the efficacy versus placebo entry in series [1] is “lack of efficacy versus placebo”. In addition, in the series on PGD2, the “change in PGD2” value is listed as “statistically significant decrease in PGD2” and the clinical safety result is “safe across a range of indicators”.

For orientation: IC50 means the midpoint of a concentration-inhibition curve. Consider `COc1cc(Nc2nccc(C)n2)cc(-c2cnc(C(C)(O)[C@H]3CC[C@H](C(=O)O)CC3)s2)n1` (single isomer, unassigned) [Example 4.22, (trans)-4-((R or S)-1-hydroxy-1-(5-{6-methoxy-4-[(4-methylpyrimidin-2-yl)amino]pyridin-2-yl}-1,3-thiazol-2-yl)ethyl]cyclohexane carboxylic acid], for which, in series [2], the IC50 amounted to 7.15 nM.

For the compound `CCCCOC(=O)[C@H]1CC[C@H](C(C)(O)c2ncc(-c3cc(Nc4nccc(OC)n4)cc(C)n3)s2)CC1` (single isomer, unassigned) [Example 4.7, butyl (trans)-4-((R or S)-1-hydroxy-1-(5-{4-[(4-methoxypyrimidin-2-yl)amino]-6-methylpyridin-2-yl}-1,3-thiazol-2-yl)ethyl]cyclohexane carboxylate], the half-maximal inhibitory concentration (IC50) in series [2] was found to be 73.6 nM.

Turning to `Cc1cc(Nc2cccnn2)nc(-c2cnc(C3(O)CCCc4cc(C(=O)O)ccc43)s2)c1` (single isomer, unassigned) [Example 2.8, (R or S)-5-hydroxy-5-{5-[4-methyl-6-(pyridazin-3-ylamino)pyridin-2-yl]-1,3-thiazol-2-yl}-5,6,7,8-tetrahydronaphthalene-2-carboxylic acid], the IC50 in series [2] is 46.5 nM.

Take `Cc1cc(Nc2cc(C(F)(F)F)ncn2)nc(-c2cnc([C@@]3(O)CC[C@H](C(=O)O)[C@H](C)C3)s2)c1` (single isomer, unassigned) [Example 1.4, rel-(1S,2R,4R or S)-4-hydroxy-2-methyl-4-[5-(4-methyl-6-{[6-(trifluoromethyl)pyrimidin-4-yl]amino}pyridin-2-yl)-1,3-thiazol-2-yl]cyclohexane-carboxylic acid]: the IC50 in series [2] was 0.475 nM.

For the compound `Cc1cc(Nc2cc(C(F)(F)F)ccn2)nc(-c2cnc(C3(O)CCC(C(=O)O)C(C)(C)C3)s2)n1` (single isomer, unassigned) [Example 1.12, (1S,4R or 1R,4S)-4-hydroxy-2,2-dimethyl-4-[5-(4-methyl-6-{[4-(trifluoromethyl)pyridin-2-yl]amino}pyrimidin-2-yl)-1,3-thiazol-2-yl]cyclohexane-carboxylic acid], the IC50 in series [2] stood at 0.698 nM.

As to `OC1(c2ncc(-c3cncc(Nc4nccc(C(F)(F)F)n4)c3)s2)CCC1` [Example 2.3], the IC50 in series [2] was 189 nM.

On to `Cc1cc(Nc2nccc(C(F)(F)F)n2)cc(-c2cnc(C(C)(O)c3ccc(C(=O)O)cc3)s2)n1` (single isomer, unassigned) [Example 1.20, (R or S)-4-(1-hydroxy-1-(5-(6-methyl-4-((4-(trifluoromethyl)pyrimidin-2-yl)amino)pyridin-2-yl)thiazol-2-yl)ethl)benzoic acid], for which the IC50 in series [2] stood at 0.289 nM.

As for `COC(=O)C1CCC(O)(c2ncc(-c3cc(Nc4nccc(OC(C)C)n4)cc(C)n3)s2)CC1(C)C` (centres unmarked) [Example 1.15, methyl 4-hydroxy-2,2-dimethyl-4-[5-(6-methyl-4-{[4-(1-methylethoxy)pyrimidin-2-yl]amino}pyridin-2-yl)-1,3-thiazol-2-yl] cyclohexane-carboxylate], the IC50 in series [2] worked out at 10.4 nM.

`Cc1cc(Nc2cc(C(F)(F)F)ncn2)nc(-c2cnc(C3(O)CCC(C(N)=O)C(C)C3)s2)c1` (single isomer, unassigned) [Example 1.17, rel-(1S,2R,4R or S)-4-hydroxy-2-methyl-4-[5-(4-methyl-6-{[6-(trifluoromethyl)pyrimidin-4-yl]amino}pyridin-2-yl)-1,3-thiazol-2-yl] cyclohexane-carboxamide]: in series [2], the IC50 came out at 1.25 nM.

With `Cc1cc(Nc2cc(C(F)(F)F)ncn2)nc(-c2cnc(C3(O)CCC(C(N)=O)C(C)C3)s2)c1` (single isomer, unassigned) [Example 1.18, rel-(1S,2R,4R or S)-4-hydroxy-2-methyl-4-[5-(4-methyl-6-{[6-(trifluoromethyl)pyrimidin-4-yl]amino}pyridin-2-yl)-1,3-thiazol-2-yl] cyclohexane-carboxamide], the IC50 in series [2] stood at 1.52 nM.

Turning to `Cc1cc(Nc2cc(C)ccn2)cc(-c2cnc(C(C)(O)[C@H]3CC[C@H](C(=O)O)CC3)s2)c1` (single isomer, unassigned) [Example 4.14, (trans)-4-((R or S)-1-hydroxy-1-(5-{3-methyl-5-[(4-methylpyridin-2-yl)amino]phenyl}-1,3-thiazol-2-yl)ethyl]cyclohexane carboxylic acid], in series [2], the IC50 was found to be 14.5 nM.

With `Cc1cc(Nc2cc(C(F)(F)F)ncn2)nc(-c2cnc(C3(O)CCC(C(=O)O)C(C)(C)C3)s2)c1` (single isomer, unassigned) [Example 1.7, (1S,4R or 1R,4S)-4-hydroxy-2,2-dimethyl-4-[5-(4-methyl-6-{[6-(trifluoromethyl)pyrimidin-4-yl]amino}pyridin-2-yl)-1,3-thiazol-2-yl] cyclohexane-carboxylic acid], the IC50 in series [2] is 2.62 nM.

As to `Cc1cc(Nc2nccc(C(F)(F)F)n2)cc(-c2cnc(C3(O)CCC(C(=O)O)C(C)(C)C3)s2)n1` (single isomer, unassigned) [Example 1.9, (1S,4R or 1R,4S)-4-hydroxy-2,2-dimethyl-4-[5-(6-methyl-4-{[4-(trifluoromethyl)pyrimidin-2-yl]amino}pyridin-2-yl)-1,3-thiazol-2-yl] cyclohexane-carboxylic acid], the IC50 in series [2] is 2.1 nM.

Take `Cc1cnnc(Nc2cc(C)cc(-c3cnc([C@@]4(O)CC[C@H](C(=O)O)C(C)(C)C4)s3)n2)c1` (single isomer, unassigned) [Example 3.3, (1S,4R or 1R,4S)-4-hydroxy-2,2-dimethyl-4-(5-{4-methyl-6-[(5-methylpyridazin-3-yl)amino]pyridin-2-yl}-1,3-thiazol-2-yl)cyclohexanecarboxylic acid]: the IC50 in series [2] was 182 nM.
